Patent US10300070B2, “Metabolically-activated drug conjugates to overcome resistance in cancer therapy” (The Brigham and Women's Hospital, Inc., priority 2014, dated 2019)

Key:
Assay type in all cases: cell-based
[1] = system: CD44; assay: Cell surface CD44 expression by FACS; settings: for CD44 expression after exogenous cytokine: MDA-MB-231, within 4 hours
Protocol: DU145 and DU145-TxR were provided by A. Mizokami^63 and cultured in DMEM containing 10% FBS, resistant line included 100 nM paclitaxel in the culture media. During treatments with chemotherapeutics, cells were grown to semi-confluence and treated with indicated concentrations of chemotherapy in serum-containing medium for indicated time points. When small molecule inhibitors were included in treatments, they were added simultaneously with chemotherapy. […] Scrambled siRNA was used as a control. For chemotherapy treatment experiments: Cancer cells were plated at a density of 0.5-1×10^5 cells/ml and allowed to adhere for 24-48 hr. […] Following washes with PBS, adherent cells were trypsinized and re-plated at a density of 1.5-2×10^5 cells/ml and cultured in serum-containing medium. […] A population of drug naïve parent cells were always cultured alongside DTC and fresh media was added at every interval that experimental population (DTC) received fresh media.
Cells were cultured as indicated, removed from culture dishes with accutase stem-pro dissociation reagent (Invitrogen, Carlsbad Calif.) and fixed with 4% paraformaldehyde in PBS for 30 min at RT, washed twice with PBS and blocked in 10% goat serum (v/v). Whenever necessary, cells were permeabilized with 0.05% saponin in PBS. Cells were incubated with CD44-APC (BD biosciences, San Jose, Calif.) overnight at 4 C and analyzed by FACS (C6 Accuri cyomteters Inc Ann Arbor, Mich.), data analysis using FlowJo software (Tree Star Inc., Ashland Oreg.) and Accuri cFlow plus software to obtain and confirm mean fluorescent intensity (GNU.org).

[2] = system: MDA-MB-231 parent or DTC; assay: Glucose uptake (2-NBDG) determined by FACS; settings: for 2-NBDG uptake after exogenously-added cytokines: MDA-MB-231 parent cells, 24 hours incubation, 50 ng/ml; for suppression of glucose consumption (2-NBDG uptake): incubation 3 h, DTC compared to drug naïve parent cells
Protocol: (§1) MDA-MB-231 (ATCC), MDA-MB-468 and 4T-1 mammary carcinoma cells (ATCC) were cultured in DMEM containing 10% Fetal Bovine Serum (FBS) at 37 C and 5% CO2. DU145 and DU145-TxR were provided by A. Mizokami^63 and cultured in DMEM containing 10% FBS, resistant line included 100 nM paclitaxel in the culture media. During treatments with chemotherapeutics, cells were grown to semi-confluence and treated with indicated concentrations of chemotherapy in serum-containing medium for indicated time points. When small molecule inhibitors were included in treatments, they were added simultaneously with chemotherapy. For siRNA gene knockdown, cells were transfected with silencer-select siRNA plasmids (Ambion, Invitrogen, Grand Island, N.Y.) pan-CD44(1) (s2682) panCD44(2) (s2681), siHIF1A (s6539) using lipofectamine 2000 (Invitrogen, Carlsbad Calif.) following manufacturer protocol and cultured for 72 hours prior to treatment. Scrambled siRNA was used as a control. For chemotherapy treatment experiments: Cancer cells were plated at a density of 0.5-1×10^5 cells/ml and allowed to adhere for 24-48 hr. When cells reached ˜70% confluency they were treated with cytotoxics at indicated concentrations for 24-48 hours and utilized for subsequent assays. For experiments in which a shorter incubation was used (i.e. 15 min-4 hours) fresh media was added 24 hours prior to addition of chemotherapy suspended to stock concentration in PBS. For generation of DTC: Cells were treated for 48 hours with chemotherapy. Following washes with PBS, adherent cells were trypsinized and re-plated at a density of 1.5-2×10^5 cells/ml and cultured in serum-containing medium. After 24 hours incubation, floating cells were removed and remaining cells were washed with 1× PBS and considered as chemotherapy-tolerant cells. A population of drug naïve parent cells were always cultured alongside DTC and fresh media was added at every interval that experimental population (DTC) received fresh media.
In vitro detection of glucose uptake was performed using 2-(N-7-Nitrobenz-2-oxa-1,3-diazol-4-yl)Amino)-2-Deoxyglucose (2-NBDG) (Invitrogen, Carlsbad Calif.), dissolved in DMSO to 50 mM. Cells were pre-treated with kinase inhibitors or vehicle for 3 hours in glucose- and phenol red-free media before addition of 50 μM 2-NBDG and subsequently read by FACS ex/em 488/535 nm. ROS was determined by pre-loading cells with CM-DCFDA (1 μM), washed 2 times with PBS and subsequently treated with H2O2 or vehicle; when kinase inhibitors were included in treatment, cells were first incubated with inhibitor for 3 hours prior to CM-DCFDA loading. Fluorescence was then determined by FACS ex/em 488/535 nm. For the following assays, cells were trypsinized and counted by Nexcelom cell counter (Lawrence, Mass.) prior to being subjected to analysis in order to achieve a quantitative value per cell: Reduced glutathione was determined using a colorimetric glutathione recycling system by DTNB following manufacturer protocol (Biovision, Milpitas Calif.). ATP analysis was performed using the ATP colorimetric analysis kit (Biovision) according to manufacturer protocol. Reductive stress was detected using the Enzo nitroreductase hypoxia kit (Enzo Life Sciences, Ann Arbor Mich.) following manufacturer protocol and visualized by fluorescent microscopy; a set of non-docetaxel-treated control cells loaded with fluorescent probe were compared against docetaxel-treated cells to derive a % redox stress increase which was calculated as fluorescence intensity of nitroreductase probe per cell and expressed as increase from vehicle. Protein synthesis was measured by two means 1. L-azidohomoalanine amino acid analog of methionine containing an azide moiety was added to cultured cells (parent or DTC) for 3 hours which is incorporated into proteins during active protein synthesis. […]

[3] = system: MDA-MB-231 parent or DTC; assay: Cell viability (MTS) and trypan blue exclusion of parent or DTC treated with doxorubicin
Protocol: as §1
Following drug incubation, cells were washed and suspended in phenol red-free RPMI or DMEM and subsequently treated with MTS reagent using manufacturer protocol (Promega, Madison, Wis.). Trypan blue exclusion was used to validate experiments and evaluate % of dead cells performed by bright field microscopy.

Q: `Cc1ccc(S(=O)(=O)/C=C/C#N)cc1` [Bay-11] was tested. Which “chemotherapy early-induced CD44 expression” value ([1]; DTX 25 nM, 4 h, Bay-11 10 μM, neutralizing antibodies 2 μg/ml) did it give?
A: modulated chemotherapy early-induced CD44 expression

Q: How did the “2-NBDG uptake after exogenously-added cytokines” value [2] turn out when “IFN-γ: recombinant cytokine purchased from Biolegend” was run?
A: didn't observe any alterations in 2-NBDG uptake

Q: And the “CD44 expression after exogenous cytokine” value [1]?
A: able to independently drive CD44 expression in a dose-dependent manner

Q: “GM-CSF: recombinant cytokine purchased from Biolegend” was tested. Which “2-NBDG uptake after exogenously-added cytokines” value [2] did it give?
A: didn't observe any alterations in 2-NBDG uptake

Q: What about the “CD44 expression after exogenous cytokine” value [1] of the same molecule?
A: able to independently drive CD44 expression in a dose-dependent manner

Q: Which “response of DTC to doxorubicin (trypan blue exclusion)” value ([3]; 72 h, DTC vs parent) does the source give for `COc1cccc2c1C(=O)c1c(O)c3c(c(O)c1C2=O)C[C@@](O)(C(=O)CO)C[C@@H]3O[C@H]1C[C@H](N)[C@H](O)[C@H](C)O1` [doxorubicin, (1S,3S)-3-Glycoloyl-3,5,12-trihydroxy-10-methoxy-6,11-dioxo-1,2,3,4,6,11-hexahydro-1-tetracenyl 3-amino-2,3,6-trideoxy-α-L-lyxo-hexopyranoside] here?
A: DTC developed resistance

Q: What about the “doxorubicin-mediated toxicity with PPP intermediates” value ([3]; drug naïve parent cells co-treated with exogenous NADPH, GSH or ectopic G6PD expression) of the same molecule?
A: reduction of doxorubicin-mediated toxicity

Q: `CO[C@H]1C[C@@H]2CC[C@@H](C)[C@@](O)(O2)C(=O)C(=O)N2CCCC[C@H]2C(=O)O[C@H]([C@H](C)C[C@@H]2CC[C@@H](OCCO)[C@H](OC)C2)CC(=O)[C@H](C)/C=C(\C)[C@@H](O)[C@@H](OC)C(=O)[C@H](C)C[C@H](C)/C=C/C=C/C=C/1C` [Everolimus, 40-O-(2-hydroxyethyl)-rapamycin] was tested. Which “suppression of glucose consumption (2-NBDG uptake)” value [2] did it give?
A: greater suppression of glucose consumption in the DTC subset compared to drug naïve parent cells

Q: `Oc1cccc(-c2nc(N3CCOCC3)c3oc4ncccc4c3n2)c1` [PI103, 3-(4-(4-Morpholinyl)pyrido[3′,2′:4,5]furo[3,2-d]pyrimidin-2-yl)phenol] was tested. Which “suppression of glucose consumption (2-NBDG uptake)” value [2] did it give?
A: greater suppression of glucose consumption in the DTC subset compared to drug naïve parent cells

Q: What about the “response to dox in combination with inhibitor, DTC” value ([3]; DTC, co-incubated with dox, 48 h, PI103 5 μM, lonidamine 10 μM, KB-458 and KB-697 10 μM) of the same molecule?
A: exquisitely responsive, overtly driven to cell death by dox in combination

Q: And the “response to dox in combination with inhibitor, parent cells” value ([3]; drug naïve parent cells, co-incubated with dox, 48 h)?
A: little synergism or a reversion of synergy

Q: For “IL-6: recombinant cytokine purchased from Biolegend”, which “2-NBDG uptake after exogenously-added cytokines” value [2] is on record?
A: didn't observe any alterations in 2-NBDG uptake

Q: With “IL-8: recombinant cytokine purchased from Biolegend” as the molecule, how does the “2-NBDG uptake after exogenously-added cytokines” value [2] read?
A: didn't observe any alterations in 2-NBDG uptake

B1: IL-23: recombinant cytokine purchased from Biolegend (protein, UniProt Q9NPF7 20-189; P29460 23-328, looked up)
Interleukin-23 subunit alpha: RAVPGGSSPAWTQCQQLSQKLCTLAWSAHPLVGHMDLREEGDEETTNDVPHIQCGDGCDPQGLRDNSQFCLQRIHQGLIFYEKLLGSDIFTGEPSLLPDSPVGQLHASLLGLSQLLQPEGHHWETQQIPSLSPSQPWQRLLLRFKILRSLQAFVAVAARVFAHGAATLSP
Interleukin-12 subunit beta: IWELKKDVYVVELDWYPDAPGEMVVLTCDTPEEDGITWTLDQSSEVLGSGKTLTIQVKEFGDAGQYTCHKGGEVLSHSLLLLHKKEDGIWSTDILKDQKEPKNKTFLRCEAKNYSGRFTCWWLTTISTDLTFSVKSSRGSSDPQGVTCGAATLSAERVRGDNKEYEYSVECQEDSACPAAEESLPIEVMVDAVHKLKYENYTSSFFIRDIIKPDPPKNLQLKPLKNSRQVEVSWEYPDTWSTPHSYFSLTFCVQVQGKSKREKKDRVFTDKTSATVICRKNASISVRAQDRYYSSSWSEWASVPCS
Q: For B1, which “2-NBDG uptake after exogenously-added cytokines” value [2] is on record?
A: didn't observe any alterations in 2-NBDG uptake

Q: And the “CD44 expression after exogenous cytokine” value [1]?
A: able to independently drive CD44 expression in a dose-dependent manner
